Where two headings read alike, the source gives them in different places.
Tests used:
Type in all cases: cell-based
[1] = system: NCI-60 panel of human cancer cell lines; assay: NCI in vitro human tumor cell line screening, full panel; details: full NCI panel; for GI50: five concentrations 10^–4–10^–8 M, read-out: GI50 (concentration that inhibits 50% net cell growth), range over panel; for MG_MID (mean graph midpoint): arithmetic mean for all tested cancer cell lines
Text: (§1) on the full NCI-60 panel comprising cancer cell lines derived from nine human cancer cell types (leukemia, non-small-cell lung, colon, central nervous system, melanoma, ovarian, renal, prostate, and breast).[50]

A498 = assay: NCI-60 screen; details: Homo sapiens, Renal Cancer
Description: as §1, with “All the synthesized compounds 51–76 were tested at a 10^–5 M concentration for their antitumor activity on the” for “on the”

CAKI-1 = assay: NCI-60 screen; details: Homo sapiens, Renal Cancer
Description: as §1, with “All the synthesized compounds 51–76 were tested at a 10^–5 M concentration for their antitumor activity on the” for “on the”

CCRF-CEM = assay: NCI-60 screen; details: Homo sapiens, Leukemia
Description: as §1, with “All the synthesized compounds 51–76 were tested at a 10^–5 M concentration for their antitumor activity on the” for “on the”

COLO 205 = assay: NCI-60 screen; details: Homo sapiens, Colon Cancer
Description: as §1, with “All the synthesized compounds 51–76 were tested at a 10^–5 M concentration for their antitumor activity on the” for “on the”

DU-145 = assay: NCI-60 screen; details: Homo sapiens, Prostate Cancer
Description: as §1, with “All the synthesized compounds 51–76 were tested at a 10^–5 M concentration for their antitumor activity on the” for “on the”

HCT-116 = assay: NCI-60 screen; details: Homo sapiens, Colon Cancer
Description: as §1, with “All the synthesized compounds 51–76 were tested at a 10^–5 M concentration for their antitumor activity on the” for “on the”

IGROV1 = assay: NCI-60 screen; details: Homo sapiens, IGROV-1; Ovarian Cancer
Description: as §1, with “All the synthesized compounds 51–76 were tested at a 10^–5 M concentration for their antitumor activity on the” for “on the”

K-562 = assay: NCI-60 screen; details: Homo sapiens, K562; Leukemia
Description: as §1, with “All the synthesized compounds 51–76 were tested at a 10^–5 M concentration for their antitumor activity on the” for “on the”

M14 = assay: NCI-60 screen; details: Homo sapiens, Melanoma
Description: as §1, with “All the synthesized compounds 51–76 were tested at a 10^–5 M concentration for their antitumor activity on the” for “on the”

MCF7 = assay: NCI-60 screen; details: Homo sapiens, Breast Cancer
Description: as §1, with “All the synthesized compounds 51–76 were tested at a 10^–5 M concentration for their antitumor activity on the” for “on the”

MDA-MB-435 = assay: NCI-60 screen; details: Homo sapiens, Melanoma
Description: as §1, with “All the synthesized compounds 51–76 were tested at a 10^–5 M concentration for their antitumor activity on the” for “on the”

NCI-H226 = assay: NCI-60 screen; details: Homo sapiens, Non-Small-Cell Lung Cancer
Description: as §1, with “All the synthesized compounds 51–76 were tested at a 10^–5 M concentration for their antitumor activity on the” for “on the”

NCI-H460 = assay: NCI-60 screen; details: Homo sapiens, Non-Small-Cell Lung Cancer
Description: as §1, with “All the synthesized compounds 51–76 were tested at a 10^–5 M concentration for their antitumor activity on the” for “on the”

PC-3 = assay: NCI-60 screen; details: Homo sapiens, Prostate Cancer
Description: as §1, with “All the synthesized compounds 51–76 were tested at a 10^–5 M concentration for their antitumor activity on the” for “on the”

SF-268 = assay: NCI-60 screen; details: Homo sapiens, CNS Cancer
Description: as §1, with “All the synthesized compounds 51–76 were tested at a 10^–5 M concentration for their antitumor activity on the” for “on the”

SF-295 = assay: NCI-60 screen; details: Homo sapiens, CNS Cancer
Description: as §1, with “All the synthesized compounds 51–76 were tested at a 10^–5 M concentration for their antitumor activity on the” for “on the”

SK-MEL-5 = assay: NCI-60 screen; details: Homo sapiens, Melanoma
Description: as §1, with “All the synthesized compounds 51–76 were tested at a 10^–5 M concentration for their antitumor activity on the” for “on the”

SK-OV-3 = assay: NCI-60 screen; details: Homo sapiens, Ovarian Cancer
Description: as §1, with “All the synthesized compounds 51–76 were tested at a 10^–5 M concentration for their antitumor activity on the” for “on the”

SNB-19 = assay: NCI-60 screen; details: Homo sapiens, CNS Cancer
Description: as §1, with “All the synthesized compounds 51–76 were tested at a 10^–5 M concentration for their antitumor activity on the” for “on the”

SW-620 = assay: NCI-60 screen; details: Homo sapiens, Colon Cancer
Description: as §1, with “All the synthesized compounds 51–76 were tested at a 10^–5 M concentration for their antitumor activity on the” for “on the”

TK-10 = assay: NCI-60 screen; details: Homo sapiens, Renal Cancer
Description: as §1, with “All the synthesized compounds 51–76 were tested at a 10^–5 M concentration for their antitumor activity on the” for “on the”

KM12 = assay: NCI-60 screen; details: Homo sapiens, Colon Cancer
Text: as §1

LOX IMVI = assay: NCI-60 screen; details: Homo sapiens, Melanoma
Text: as §1

NCI-H522 = assay: NCI-60 screen; details: Homo sapiens, Non-Small-Cell Lung Cancer
Text: as §1

OVCAR-3 = assay: NCI-60 screen; details: Homo sapiens, Ovarian Cancer
Text: as §1

HBL1 (ABC DLBCL) = assay: MTT cell proliferation, lymphoma; details: Homo sapiens, 72 h; for activity at 1 µM: of untreated cells, read-out: Proliferating cells (%); for IC50: MTT
Description: (§2) All compounds were further tested at the concentration of 1 μM on four cell lines derived from distinct lymphoma histotypes, plus two with secondary resistance to the PI3Kδ inhibitor idelalisib[51] or to the BTK inhibitor ibrutinib.[52] […] For comparison, the same experiments were conducted using compound 3, but the response to it was minimal, and thus it was not considered further.
(§3) Established human cell lines derived from germinal center B-cell (GCB) (SU-DHL-10), activated B-cell (ABC) (HBL1) diffuse large B-cell lymphoma (DLBCL), mantle cell lymphoma (MCL) (MINO), splenic marginal zone lymphoma (SMZL) (parental VL51, VL51 idelalisib resistant clone, VL51 ibrutinib resistant clone) were cultured in culture RPMI-1640 media supplemented with fetal bovine serum (10%), penicillin–streptomycin–neomycin (∼5,000 units of penicillin, 5 mg of streptomycinm and 10 mg of neomycin/mL, Sigma), and L-glutamine (1%). Vincristine sulfate was purchased from Sigma-Aldrich. Cell line identities were confirmed by CellCheck test (IDEXX, BioResearch, Ludwigsburg, Germany). All compounds were dissolved in dimethyl sulfoxide to obtain a stock concentration of 10 mM.
(§4) The antiproliferative activity of all compounds was assessed by using the 3-(4.5-dimethylthiazolyl-2)-2,5-diphenyltetrazolium bromide (MTT) test. Cells were seeded in 96-well plates (nontissue culture treated) at a density of 1 × 10^5 cells/mL and treated with a single concentration of 1 μM for 72 h. […] In this case, cells were treated in triplicate with serially diluted compounds in the appropriate tissue culture medium at a range of 40–10 000 nM. Cells were incubated for 72 h at 37 °C, 5% CO2. Wells containing medium only were included on each plate and served as blanks for absorbance readings. MTT (Sigma, Buchs, Switzerland) was prepared as a 5 mg/mL stock solution in phosphate buffered saline (PBS) and filter-sterilized. MTT solution (22 μL) was added to each well, and tissue culture plates were incubated at 37 °C for 4 h. Cells were then lysed with 25% sodium dodecyl sulfate lysis buffer, and absorbance was read at 570 nm using a Beckman Coulter-AD340 plate reader.

MINO (MCL) = assay: MTT cell proliferation, lymphoma; details: Homo sapiens, 72 h; for activity at 1 µM: of untreated cells, read-out: Proliferating cells (%); for IC50: MTT
Description: as §2, §3, §4

SU-DHL-10 (GCB DLBCL) = assay: MTT cell proliferation, lymphoma; details: Homo sapiens, SU-DHL10, 72 h; for activity at 1 µM: of untreated cells, read-out: Proliferating cells (%); for IC50: MTT
Description: as §2, §3, §4

VL51 (MZL) = assay: MTT cell proliferation, lymphoma; details: Homo sapiens, 72 h; for activity at 1 µM: of untreated cells, read-out: Proliferating cells (%); for IC50: MTT
Description: as §2, §3, §4

VL51 ibrutinib-resistant = assay: MTT cell proliferation, lymphoma; details: Homo sapiens, 72 h, of untreated cells, read-out: Proliferating cells (%)
Description: as §2, §3, §4

[2] = system: VL51 idelalisib-resistant; assay: MTT cell proliferation, lymphoma; details: Homo sapiens, 72 h, of untreated cells, read-out: Proliferating cells (%)
Description: as §2, §3, §4

Row | Compound | MG_MID (mean graph midpoint) [1] [µM] | GI50 (A498) [nM] | GI50 (CAKI-1) [nM] | GI50 (CCRF-CEM) [nM] | GI50 (COLO 205) [nM] | GI50 (DU-145) [nM] | GI50 (HCT-116) [nM] | GI50 (IGROV1) [nM] | GI50 (K-562) [nM] | GI50 (M14) [nM] | GI50 (MCF7) [nM] | GI50 (MDA-MB-435) [nM] | GI50 (NCI-H226) [nM] | GI50 (NCI-H460) [nM] | GI50 (PC-3) [nM] | GI50 (SF-268) [nM] | GI50 (SF-295) [nM] | GI50 (SK-MEL-5) [nM] | GI50 (SK-OV-3) [nM] | GI50 (SNB-19) [nM] | also measured
1 | CCOC(=O)c1c(Cl)c2c(n1Cc1cc(OC)cc(OC)c1)-c1oncc1CCC2 [Compound 75, Ethyl 7-Chloro-9-(3,5-dimethoxybenzyl)-4,5,6,9-tetrahydropyrrolo[2′,3′:3,4]cyclohepta[1,2-d][1,2]oxazole-8-carboxylate] | 0.41 | 170 | 280 | 250 | 170 | 350 | 430 | 340 | 290 | 260 | 100 | 30 | 9710 | 350 | 290 | 1910 | 60 | 490 | 240 | 520 | GI50 ([1]; Homo sapiens): 30 to 27000 nM; GI50 (SW-620): 320 nM; GI50 (TK-10): 10300 nM; GI50 (KM12): 320 nM; GI50 (LOX IMVI): 880 nM; GI50 (NCI-H522): 30 nM; GI50 (OVCAR-3): 190 nM; activity at 1 µM (HBL1 (ABC DLBCL)): 20.7%; IC50 (HBL1 (ABC DLBCL)): 900 nM; activity at 1 µM (MINO (MCL)): 9.5%; IC50 (MINO (MCL)): 900 nM; activity at 1 µM (SU-DHL-10 (GCB DLBCL)): 11.5%; IC50 (SU-DHL-10 (GCB DLBCL)): 900 nM; activity at 1 µM (VL51 (MZL)): 38.1%; IC50 (VL51 (MZL)): 800 nM; activity at 1 µM (VL51 ibrutinib-resistant): 40.8%; activity at 1 µM [2]: 40.2%
2 | CCOC(=O)c1cc2c(n1Cc1cc(OC)c(OC)c(OC)c1)-c1oncc1CCC2 [Compound 67, Ethyl 9-(3,4,5-Trimethoxybenzyl)-4,5,6,9-tetrahydropyrrolo[2′,3′:3,4]cyclohepta[1,2-d][1,2]oxazole-8-carboxylate] | 0.20 | 110 | 70 | 300 | 40 | 280 | 190 | 60 | 130 | 150 | 40 | 20 | 1210 | 230 | 170 | 520 | 440 | 170 | 130 | 560 | GI50 [1]: 10 to 64900 nM; GI50 (SW-620): 140 nM; GI50 (TK-10): 64900 nM; GI50 (KM12): 50 nM; GI50 (LOX IMVI): 410 nM; GI50 (NCI-H522): 10 nM; GI50 (OVCAR-3): 30 nM; activity at 1 µM (HBL1 (ABC DLBCL)): 24.2%; IC50 (HBL1 (ABC DLBCL)): 900 nM; activity at 1 µM (MINO (MCL)): 8.9%; IC50 (MINO (MCL)): 600 nM; activity at 1 µM (SU-DHL-10 (GCB DLBCL)): 11.2%; IC50 (SU-DHL-10 (GCB DLBCL)): 600 nM; activity at 1 µM (VL51 (MZL)): 40.5%; IC50 (VL51 (MZL)): 500 nM; activity at 1 µM (VL51 ibrutinib-resistant): 40.4%; activity at 1 µM [2]: 36.6%
3 | CCOC(=O)c1cc2c(n1Cc1cccc(OC)c1)-c1oncc1CCC2 [Compound 63, Ethyl 9-(3-Methoxybenzyl)-4,5,6,9-tetrahydropyrrolo[2′,3′:3,4]cyclohepta[1,2-d][1,2]oxazole-8-carboxylate] | 1.45 | 440 | 2310 | 2170 | 580 | 2180 | 470 | 1160 | 390 | 540 | 370 | 150 | 21000 | 3530 | 2350 | 6710 | 620 | 750 | 2830 | 8230 | GI50 ([1]; Homo sapiens): 150 to 18700 nM; GI50 (SW-620): 480 nM; GI50 (TK-10): 11200 nM; GI50 (KM12): 460 nM; GI50 (LOX IMVI): 1750 nM; GI50 (NCI-H522): 230 nM; GI50 (OVCAR-3): 300 nM; activity at 1 µM (HBL1 (ABC DLBCL)): 117%; IC50 (HBL1 (ABC DLBCL)): > 5000 nM; activity at 1 µM (MINO (MCL)): 86.3%; IC50 (MINO (MCL)): 2600 nM; activity at 1 µM (SU-DHL-10 (GCB DLBCL)): 51.5%; IC50 (SU-DHL-10 (GCB DLBCL)): 3000 nM; activity at 1 µM (VL51 (MZL)): 66.7%; IC50 (VL51 (MZL)): 2300 nM; activity at 1 µM (VL51 ibrutinib-resistant): 64.9%; activity at 1 µM [2]: 62.3%

— paper PMC7901646, “Pyrrolo[2′,3′:3,4]cyclohepta[1,2-d][1,2]oxazoles, a New Class of Antimitotic Agents Active against Multiple Malignant Cell Types” (Journal of Medicinal Chemistry, 2020)
